These results are taken from US8846933B2, “N-link hydroxamic acid derivatives useful as antibacterial agents” (Pfizer Inc., priority 2009, dated 2014).

A value given as a limit tells only on which side of the number the result lay.

Format in all cases: cell-based
Test [1] concerns Pseudomonas aeruginosa UI-18: Wild-type (PA-7). As to the kind of experiment: MIC determination (CLSI), strain PA-7. The conditions noted are these: Pseudomonas aeruginosa UI-18, wild-type; unit assumed. The gist of the method: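 MIC determined by broth dilution per CLSI M7-A7 guidelines with M100-S18 interpretive standards. Test organism: wild-type Pseudomonas aeruginosa UI-18, designated PA-7.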

The test system of test [2] is Escherichia coli EC-1: VOGEL, mouse virulent. As to the kind of experiment: MIC determination (CLSI), strain EC-1. The conditions noted are these: Escherichia coli EC-1, VOGEL, mouse virulent; unit assumed. The gist of the method: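 The mouse-virulent VOGEL isolate of E. coli, EC-1, served as test organism. Minimum inhibitory concentration was measured by CLSI dilution methodology (M7-A7; M100-S18 standards).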

The test system of test [3] is Acinetobacter baumanii/haemolyticus: Multidrug-resistant clinical isolate (AB-3167). Kind of test: MIC determination (CLSI), strain AB-3167. Particulars: unit assumed. How it is done:
The in vitro antibacterial activity of compounds described in the Examples was evaluated by minimum inhibitory concentration (MIC) testing according to Clinical and Laboratory Standards Institute (CLSI, formerly NCCLS) guidelines. See: Clinical and Laboratory Standards Institute. Methods for Dilution Antimicrobial Susceptibility Tests for Bacteria that Grow Aerobically; Approved Standard-Seventh Edition. CLSI document M7-A7 [ISBN 1-56238-587-9]. Clinical and Laboratory Standards Institute, 940 West Valley Road, Suite 1400, Wayne, Pa. 19087-1898 USA, 2006; also Clinical and Laboratory Standards Institute. Performance Standards for Antimicrobial Susceptibility Testing; Eighteenth Informational Supplement. CLSI document M100-S18 [ISBN1-56238-653-0].Clinical and Laboratory Standards Institute.
The following bacterial strains were used in these MIC determinations:
2) Acinetobacter baumanii/haemolyticus: Multidrug-resistant clinical isolate labeled as AB-3167 in Tables 4 and 5;

As for `Cc1nccc(-c2ccc(-c3ccn(CC[C@](C)(C(=O)NO)S(C)(=O)=O)c(=O)c3)cc2)n1` [Example 23, (2R)-N-hydroxy-2-methyl-4-{4-[4-(2-methylpyrimidin-4-yl)phenyl]-2-oxopyridin-1(2H)-yl}-2-(methylsulfonyl)butanamide], in test [1], the PA-7 (MIC) turned out to be 2 µg/mL. The molecule further displayed an EC-1 (MIC) in test [2] of 2 µg/mL. In test [3], this molecule showed an AB-3167 (MIC) above 64 µg/mL.
`COc1ccc(COc2ccc(-c3ccn(CC[C@](C)(C(=O)NO)S(C)(=O)=O)c(=O)c3)cc2)cn1` [Example 59, (2R)-N-hydroxy-4-[4-{4-[(6-methoxypyridin-3-yl)methoxy]phenyl}-2-oxopyridin-1(2H)-yl]-2-methyl-2-(methylsulfonyl)butanamide]: the PA-7 (MIC) in test [1] came to 1 µg/mL. In addition, in test [2], the EC-1 (MIC) worked out at 0.25 µg/mL. The same molecule came in with an AB-3167 (MIC) in test [3] above 64 µg/mL.
Taken in the same sequence, the figures for `CC(CCn1ccc(OCCc2ccccc2)cc1=O)(C(=O)NO)S(C)(=O)=O` (stereo not drawn) [Example 68-U, N-hydroxy-2-methyl-2-(methylsulfonyl)-4-[2-oxo-4-(2-phenylethoxy)pyridin-1(2H)-yl]butanamide] were 64 µg/mL, 32 µg/mL and above 64 µg/mL.
For the molecule `CC(CCn1ccc(OCCC2CCCC2)cc1=O)(C(=O)NO)S(C)(=O)=O` (stereo not drawn) [Example 68-S, 4-[4-(2-cyclopentylethoxy)-2-oxopyridin-1(2H)-yl]-N-hydroxy-2-methyl-2-(methylsulfonyl)butanamide], the PA-7 (MIC) in test [1] came to 32 µg/mL. The EC-1 (MIC) in test [2] was 16 µg/mL. Moreover, the AB-3167 (MIC) in test [3] was 64 µg/mL.
The corresponding values for `CC(C)(O)CCCOc1ccc(-c2ccn(CCC(C)(C(=O)NO)S(C)(=O)=O)c(=O)c2)cc1` (stereo not drawn) [Example 10-E, N-hydroxy-4-[4-{4-[(4-hydroxy-4-methylpentyl)oxy]phenyl}-2-oxopyridin-1(2H)-yl]-2-methyl-2-(methylsulfonyl)butanamide] are 2 µg/mL, 0.5 µg/mL and above 64 µg/mL.
Regarding `Cc1cc(-c2ccn(CC[C@](C)(C(=O)NO)S(C)(=O)=O)c(=O)c2)ccc1-c1cc(CO)no1` [Example 63, N-Hydroxy-4-[4-{4-[3-(hydroxymethyl)isoxazol-5-yl]-3-methylphenyl}-2-oxopyridin-1(2H)-yl]-2-methyl-2-(methylsulfonyl)butanamide], in test [1], the PA-7 (MIC) turned out to be 4 µg/mL. For the same molecule, the EC-1 (MIC) in test [2] was determined as 2 µg/mL. In test [3], the AB-3167 (MIC) was above 64 µg/mL.
`C[C@@](CCn1ccc(-c2ccc(Cl)c(Cl)c2)cc1=O)(C(=O)NO)S(C)(=O)=O` [Example 68-C, (2R)-4-[4-(3,4-dichlorophenyl)-2-oxopyridin-1(2H)-yl]-N-hydroxy-2-methyl-2-(methylsulfonyl)butanamide]: the PA-7 (MIC) in test [1] was found to be 0.5 µg/mL. Also, in test [2], the EC-1 (MIC) came out at 0.125 µg/mL. The AB-3167 (MIC) in test [3] was above 64 µg/mL.
Taken in the same sequence, the figures for `C[C@@](CCn1ccc(-c2ccc([C@H]3C[C@@H](O)C3)cc2)cc1=O)(C(=O)NO)S(C)(=O)=O` [Example 5, (2R)-N-hydroxy-4-{4-[4-(cis-3-hydroxycyclobutyl)phenyl]-2-oxopyridin-1(2H)-yl}-2-methyl-2-(methylsulfonyl)butanamide] were 2 µg/mL, 4 µg/mL and above 64 µg/mL.
The molecule `Cc1ccc(-c2ccn(CC[C@](C)(C(=O)NO)S(C)(=O)=O)c(=O)c2)cc1` [Example 16, (2R)-N-hydroxy-2-methyl-4-[4-(4-methylphenyl)-2-oxopyridin-1(2H)-yl]-2-(methylsulfonyl)butanamide] gave a PA-7 (MIC) in test [1] of 0.5 µg/mL. In test [2], this molecule came in with an EC-1 (MIC) of 0.5 µg/mL. The molecule also registered an AB-3167 (MIC) in test [3] above 64 µg/mL.
In test [1], `C[C@@](CCn1ccc(-c2cccc(Cl)c2Cl)cc1=O)(C(=O)NO)S(C)(=O)=O` [Example 46, (2R)-4-[4-(2,3-dichlorophenyl)-2-oxopyridin-1(2H)-yl]-N-hydroxy-2-methyl-2-(methylsulfonyl)butanamide] yielded a PA-7 (MIC) of 0.5 µg/mL. In test [2], the EC-1 (MIC) was 0.25 µg/mL. In test [3], this molecule showed an AB-3167 (MIC) above 64 µg/mL.
The corresponding values for `C[C@@](CCn1ccc(-c2ccc(-n3cccn3)cc2)cc1=O)(C(=O)NO)S(C)(=O)=O` [Example 1, (2R)-N-hydroxy-2-methyl-2-(methylsulfonyl)-4-{2-oxo-4-[4-(1H-pyrazol-1-yl)phenyl]pyridin-1(2H)-yl}butanamide] are 2 µg/mL, 0.5 µg/mL and above 64 µg/mL.
The molecule `C[C@@](CCn1cc(F)c(-c2ccccc2)cc1=O)(C(=O)NO)S(C)(=O)=O` [Example 56, (2R)-4-(5-fluoro-2-oxo-4-phenylpyridin-1(2H)-yl)-N-hydroxy-2-methyl-2-(methylsulfonyl)butanamide] came in with a PA-7 (MIC) in test [1] of 1 µg/mL. In addition, in test [2], the EC-1 (MIC) stood at 4 µg/mL. The same molecule showed an AB-3167 (MIC) in test [3] above 64 µg/mL.
Molecule `C[C@@](CCn1ccc(-c2ccc(Cl)cc2)cc1=O)(C(=O)NO)S(C)(=O)=O` [Example 15, (2R)-4-[4-(4-chlorophenyl)-2-oxopyridin-1(2H)-yl]-N-hydroxy-2-methyl-2-(methylsulfonyl)butanamide] yielded a PA-7 (MIC) in test [1] of 0.5 µg/mL. Also, the EC-1 (MIC) in test [2] was 0.5 µg/mL. In test [3], the AB-3167 (MIC) is above 64 µg/mL.
As for `C[C@@](CCn1ccc(C#Cc2ccccc2)cc1=O)(C(=O)NO)S(C)(=O)=O` [Example 65, (2R)-N-Hydroxy-2-methyl-2-(methylsulfonyl)-4-[2-oxo-4-(phenylethynyl)pyridin-1(2H)-yl]butanamide], the PA-7 (MIC) in test [1] stood at 0.5 µg/mL. Further, the EC-1 (MIC) in test [2] came out at 0.125 µg/mL. In test [3], this molecule displayed an AB-3167 (MIC) of 64 µg/mL.
Taken in the same sequence, the figures for `C[C@@](CCn1ccc(-c2ccc(Cl)c(F)c2)cc1=O)(C(=O)NO)S(C)(=O)=O` [Example 68-B, (2R)-4-[4-(4-chloro-3-fluorophenyl)-2-oxopyridin-1(2H)-yl]-N-hydroxy-2-methyl-2-(methylsulfonyl)butanamide] were 0.5 µg/mL, 0.5 µg/mL and above 64 µg/mL.
Taken in the same sequence, the figures for `C[C@@](CCn1ccc(-c2ccc(-n3nccn3)cc2)cc1=O)(C(=O)NO)S(C)(=O)=O` [Example 40, (2R)-N-hydroxy-2-methyl-2-(methylsulfonyl)-4-{2-oxo-4-[4-(2H-1,2,3-triazol-2-yl)phenyl]pyridin-1(2H)-yl}butanamide] were 0.25 µg/mL, 0.03 µg/mL and above 64 µg/mL.
Taken in the same sequence, the figures for `CC(C)(O)C1CC(Oc2ccc(-c3ccn(CC[C@](C)(C(=O)NO)S(C)(=O)=O)c(=O)c3)cc2)C1` (stereo partly drawn) [Example 10-H, (2R)-N-hydroxy-4-[4-(4-{[3-(1-hydroxy-1-methylethyl)cyclobutyl]oxy}phenyl)-2-oxopyridin-1(2H)-yl]-2-methyl-2-(methylsulfonyl)butanamide] were 2 µg/mL, 1 µg/mL and above 64 µg/mL.
For the molecule `CC(CCn1ccc(-c2ccc3c(c2)CCC(O)C3)cc1=O)(C(=O)NO)S(C)(=O)=O` (stereo not drawn) [Example 68-O, N-hydroxy-4-[4-(6-hydroxy-5,6,7,8-tetrahydronaphthalen-2-yl)-2-oxopyridin-1(2H)-yl]-2-methyl-2-(methylsulfonyl)butanamide], in test [1], the PA-7 (MIC) was 8 µg/mL. In addition, in test [2], the EC-1 (MIC) came out at 16 µg/mL. Moreover, the AB-3167 (MIC) in test [3] was above 64 µg/mL.
In test [1], `C[C@@](CCn1ccc(-c2ccc(F)cc2)cc1=O)(C(=O)NO)S(C)(=O)=O` [Example 41, (2R)-4-[4-(4-fluorophenyl)-2-oxopyridin-1(2H)-yl]-N-hydroxy-2-methyl-2-(methylsulfonyl)butanamide] yielded a PA-7 (MIC) of 0.5 µg/mL. Further, in test [2], the EC-1 (MIC) is 1 µg/mL. The AB-3167 (MIC) in test [3] is above 64 µg/mL.
Take `CC(CCn1ccc(OCCCC2CCCCC2)cc1=O)(C(=O)NO)S(C)(=O)=O` (stereo not drawn) [Example 66, 4-[4-(3-Cyclohexylpropoxy)-2-oxopyridin-1(2H)-yl]-N-hydroxy-2-methyl-2-(methylsulfonyl)butanamide]: in test [1], the PA-7 (MIC) came out at 8 µg/mL. This molecule came in with an EC-1 (MIC) in test [2] of 1 µg/mL. In addition, the AB-3167 (MIC) in test [3] turned out to be 2 µg/mL.
The corresponding values for `Cc1ncc(-c2ccc(-c3ccn(CC[C@](C)(C(=O)NO)S(C)(=O)=O)c(=O)c3)cc2)cn1` [Example 27, (2R)-N-hydroxy-2-methyl-4-{4-[4-(2-methylpyrimidin-5-yl)phenyl]-2-oxopyridin-1(2H)-yl}-2-(methylsulfonyl)butanamide] are 4 µg/mL, 16 µg/mL and above 64 µg/mL.
As for `C[C@@](CCn1ccc(-c2ccc(OC[C@H]3CC[C@H](O)CC3)cc2F)cc1=O)(C(=O)NO)S(C)(=O)=O` [Example 10, (2R)-4-[4-{2-fluoro-4-[(trans-4-hydroxycyclohexyl)methoxy]phenyl}-2-oxopyridin-1(2H)-yl]-N-hydroxy-2-methyl-2-(methylsulfonyl) butanamide], the PA-7 (MIC) in test [1] was determined as 1 µg/mL. For the same molecule, in test [2], the EC-1 (MIC) came out at 0.25 µg/mL. The same molecule had an AB-3167 (MIC) in test [3] above 64 µg/mL.
Taken in the same sequence, the figures for `Cc1c(O)ccc(-c2ccn(CC[C@](C)(C(=O)NO)S(C)(=O)=O)c(=O)c2)c1F` [Example 12, (2R)-4-[4-(2-fluoro-4-hydroxy-3-methylphenyl)-2-oxopyridin-1(2H)-yl]-N-hydroxy-2-methyl-2-(methylsulfonyl)butanamide] were 16 µg/mL, 16 µg/mL and above 64 µg/mL.
